Data reported in patent US20260265251A1 (priority 2023, published 2026).

How the values were obtained:
SK-MEL-3 cells = assay: SK-MEL-3 cell proliferation assay; assay type: cell-based; conditions: Homo sapiens, SK-MEL3; SK-MEL-3 cells, 72 hours, CellTiter-Glo; read-out: SK-MEL-3 IC50
A2058 cells = assay: A2058 cell proliferation assay; assay type: cell-based; conditions: Homo sapiens, 96 hours, CellTiter-Glo

O=c1[nH]c2cc3c(nc2[nH]1)CC[C@H](c1cnn(C(F)F)c1Cl)C3 (single isomer, unassigned) [Example 64-A, (*S)-7-(5-chloro-1-(difluoromethyl)-1H-pyrazol-4-yl)-1,3,5,6,7,8-hexahdro-2H-imidazo[4,5-b]quinolin-2-one]
IC50 (SK-MEL-3 cells): 0.04 nM
IC50 (A2058 cells): 0.29 nM

O=c1[nH]c2cc3c(nc2[nH]1)CC[C@@H](c1cnn(C(F)F)c1Cl)C3 (single isomer, unassigned) [Example 64-B, (*R)-7-(5-chloro-1-(difluoromethyl)-1H-pyrazol-4-yl)-1,3,5,6,7,8-hexahydro-2H-imidazo[4,5-b]quinolin-2-one]
IC50 (SK-MEL-3 cells): 0.5 nM
IC50 (A2058 cells): 1.79 nM

O=c1[nH]c2cc3cc(-c4ccc(F)cc4Cl)ccc3nc2[nH]1 [Example 3, 7-(2-chloro-4-fluorophenyl)-1,3-dihydro-2H-imidazo[4,5-b]quinolin-2-one]
IC50 (SK-MEL-3 cells): 0.5 nM
IC50 (A2058 cells): 1.2 nM

O=c1[nH]c2cc3cc(-c4cnn(C(F)F)c4Cl)ccc3nc2[nH]1 [Example 13, 7-(5-chloro-1-(difluoromethyl)-1H-pyrazol-4-yl)-1,3-dihydro-2H-imidazo[4,5-b]quinolin-2-one]
IC50 (SK-MEL-3 cells): 0.03 nM
IC50 (A2058 cells): 0.1 nM

N#Cc1ccc(-c2ccc3nc4[nH]c(=O)[nH]c4cc3c2)c(Cl)c1 [Example 14, 7-(2-chloro-4-cyanophenyl)-1,3-dihydro-2H-imidazo[4,5-b]quinolin-2-one]
IC50 (SK-MEL-3 cells): 0.3 nM
IC50 (A2058 cells): 1.1 nM

O=c1[nH]c2cc3cc(-c4nn(C(F)F)cc4Cl)ccc3nc2[nH]1 [Example 15, 7-(4-chloro-1-(difluoromethyl)-1H-pyrazol-3-yl)-1,3-dihydro-2H-imidazo[4,5-b]quinolin-2-one]
IC50 (SK-MEL-3 cells): 0.7 nM
IC50 (A2058 cells): 3.9 nM

O=c1[nH]c2cc3cc(-c4ccc(C(F)(F)F)nc4Cl)ccc3nc2[nH]1 [Example 17, 7-(2-chloro-6-(trifluoromethyl)pyridin-3-yl)-1,3-dihydro-2H-imidazo[4,5-b]quinolin-2-one]
IC50 (SK-MEL-3 cells): 1.1 nM
IC50 (A2058 cells): 11 nM

O=c1[nH]c2cc3c(nc2[nH]1)CCN(c1ccc(F)cc1Cl)C3 [Example 21, 7-(2-chloro-4-fluorophenyl)-1,3,5,6,7,8-hexahydro-2H-imidazo[4,5-b][1,6]naphthyridin-2-one]
IC50 (SK-MEL-3 cells): 4.5 nM
IC50 (A2058 cells): 38.4 nM

N#Cc1ccc(N2CCc3nc4[nH]c(=O)[nH]c4cc3C2)c(Cl)c1 [Example 22, 7-(2-chloro-4-cyanophenyl)-1,3,5,6,7,8-hexahydro-2H-imidazo[4,5-b][1,6]naphthyridin-2-one]
IC50 (SK-MEL-3 cells): 1.6 nM
IC50 (A2058 cells): 11.9 nM

O=c1[nH]c2cc3c(nc2[nH]1)CCN(c1ncc(F)cc1Cl)C3 [Example 23, 7-(3-chloro-5-fluoropyridin-2-yl)-1,3,6,7,8-hexahydro-2H-imidazo[4,5-b][1,6]naphthyridin-2-one]
IC50 (SK-MEL-3 cells): 4.4 nM
IC50 (A2058 cells): 44.8 nM

O=c1[nH]c2cc3c(Cl)c(-c4ccc(F)cn4)ccc3nc2[nH]1 [Example 24, 8-chloro-7-(5-fluoropyridin-2-yl)-1,3-dihydro-2H-imidazo[4,5-b]quinolin-2-one]
IC50 (SK-MEL-3 cells): 0.9 nM
IC50 (A2058 cells): 2.7 nM

[2H]C([2H])([2H])Oc1ccc(-c2ccc3nc4[nH]c(=O)[nH]c4cc3c2)c(Cl)n1 [Example 27, 7-(2-chloro-6-(methoxy-d3)pyridin-3-yl)-1,3-dihydro-2H-imidazo[4,5-b]quinolin-2-one]
IC50 (SK-MEL-3 cells): 3.1 nM
IC50 (A2058 cells): 20.2 nM

[2H]C([2H])([2H])Oc1nc(Cl)ccc1-c1ccc2nc3[nH]c(=O)[nH]c3cc2c1 [Example 28, 7-(6-chloro-2-(methoxy-d3)pyridin-3-yl)-1,3-dihydro-2H-imidazo[4,5-b]quinolin-2-one]
IC50 (SK-MEL-3 cells): 1.1 nM
IC50 (A2058 cells): 7.9 nM

O=c1[nH]c2cc3cc(-c4cnn(C(F)F)c4C(F)(F)F)ccc3nc2[nH]1 [Example 30, 7-(1-(difluoromethyl)-5-(trifluoromethyl)-1H-pyrazol-4-yl)-1,3-dihydro-2H-imidazo[4,5-b]quinolin-2-one]
IC50 (SK-MEL-3 cells): 0.1 nM
IC50 (A2058 cells): 0.9 nM
